System: apyrase
Assay: Screen for apyrase inhibitors (Method 1, in vitro phosphate-release absorbance assay)
Assay type: biochemical
Settings: inhibitor conc at 1 mM stock, 1 hr room temperature, absorbance 630 nm; rounded average of two assay results
Method: Apyrase inhibitors useful as enhancers of pesticidal activity are assessed using an in vitro assay. The method of Windsor, Bio Techniques 33:1024-1030 (November 2002) was used as follows Screen for Apyrase Inhibitors- 96 well plates were used for the assay: (Greiner bio-one: REF-655901-96 well, PS, F-bottom, Clear, Non-binding) Buffers: • Reaction Buffer: 60 mM Hepes; 3 mM MgCl2, 3 mM CaCl2 and 3 mM ATP (pH 6.5) • Development Buffer A: 2% aqueous ammonium molybdate • Development Buffer B: 11% ascorbic acid in 37.5% TCA in water • Stop buffer C: 2% trisodium citrate in 2% acetic acid solution in water • Add 100 μl of reaction buffer to each well. • Add 10 μl of DMSO (control) or inhibitor/compound or compounds such as […] or orthovanadate to each well. […] A blank cell indicates either <10% observed inhibition or a large difference between repetitions. In certain examples, the lack of observed inhibition is due to a lack of solubility of the compound under assay conditions, rather than a lack of apyrase inhibitory activity.

First: O=C(NCCCN1CCCC1=O)c1cccc(S(=O)(=O)Nc2ccc(Br)cc2)c1 [I-46, 3-(N-(4-bromophenyl)sulfamoyl)-N-(3-(2-oxopyrrolidin-1-yl)propyl)benzamide]
Second: O=C(NCc1ccco1)c1cccc(S(=O)(=O)Nc2ccc(Br)cc2)c1 [I-48, 3-(N-(4-bromophenyl)sulfamoyl)-N-(furan-2-ylmethyl)benzamide]
The “% Inhibition of Apyrase” value of the first is higher: 12% for the first, 11% for the second.

Compared with CC(=O)Nc1ccc(NC(=O)c2cccc(S(=O)(=O)Nc3ccc(Br)cc3)c2)cc1 [I-47, N-(4-acetamidophenyl)-3-(N-(4-bromophenyl)sulfamoyl)benzamide], Cc1ccc(C(=O)Nc2cccc(S(=O)(=O)Nc3ccc(Br)cc3)c2)cc1 [I-194, N-(3-(N-(4-bromophenyl)sulfamoyl)phenyl)-4-methylbenzamide] is higher in “% Inhibition of Apyrase” value: 12% for the first, 74% for the second.

Compared with Cc1ccc([N+](=O)[O-])cc1NC(=O)c1cc(S(=O)(=O)Nc2ccc(Br)cc2)c(Cl)cc1Cl [I-49, 5-(N-(4-bromophenyl)sulfamoyl)-2,4-dichloro-N-(2-methyl-5-nitrophenyl)benzamide], O=C(Nc1cccc([N+](=O)[O-])c1)c1cc(S(=O)(=O)Nc2ccc(F)cc2)ccc1Cl [I-52, 2-chloro-5-(N-(4-fluorophenyl)sulfamoyl)-N-(3-nitrophenyl)benzamide] is lower in “% Inhibition of Apyrase” value: 11% for the first, 10% for the second.

O=C(Nc1cccc([N+](=O)[O-])c1)c1cccc(S(=O)(=O)NCc2ccccc2)c1 [I-50, 3-(N-benzylsulfamoyl)-N-(3-nitrophenyl)benzamide] and O=C(Nc1cccc([N+](=O)[O-])c1)c1cccc(S(=O)(=O)Nc2cccc(F)c2)c1 [I-51, 3-(N-(3-fluorophenyl)sulfamoyl)-N-(3-nitrophenyl)benzamide] are the same in “% Inhibition of Apyrase” value: 10% for the first, 10% for the second.

Compared with O=C(Nc1ccccc1Cl)c1cccc(S(=O)(=O)Nc2ccc(Cl)cc2)c1 [I-177, N-(2-chlorophenyl)-3-(N-(4-chlorophenyl)sulfamoyl)benzamide], N#Cc1cccc(NC(=O)c2ccc(S(=O)(=O)Nc3ccccc3Cl)cc2)c1 [I-202, 4-(N-(2-chlorophenyl)sulfamoyl)-N-(3-cyanophenyl)benzamide] is higher in “% Inhibition of Apyrase” value: 69% for the first, 78% for the second.

Compared with Cc1cc(C)cc(NC(=O)c2cccc(S(=O)(=O)Nc3ccc4c(c3)OCO4)c2)c1 [I-179, 3-(N-(benzo[d][1,3]dioxol-5-yl)sulfamoyl)-N-(3,5-dimethylphenyl)benzamide], O=C(Nc1ccc(F)c(Cl)c1)c1cccc(S(=O)(=O)Nc2ccc3c(c2)OCO3)c1 [I-190, 3-(N-(benzo[d][1,3]dioxol-5-yl)sulfamoyl)-N-(3-chloro-4-fluorophenyl)benzamide] is higher in “% Inhibition of Apyrase” value: 72% for the first, 73% for the second.

First: O=C(Nc1cccc(S(=O)(=O)N2CCCC2)c1)c1ccccc1NS(=O)(=O)c1cccc(C(F)(F)F)c1 [I-180, N-(3-(pyrrolidin-1-ylsulfonyl)phenyl)-2-((3-(trifluoromethyl)phenyl)sulfonamido) benzamide]
Second: Cc1ccc(NS(=O)(=O)c2ccc(C(=O)Nc3cccc(S(=O)(=O)N4CCCC4)c3)cc2)cc1 [I-204, N-(3-(pyrrolidin-1-ylsulfonyl)phenyl)-4-(N-(p-tolyl)sulfamoyl)benzamide]
The “% Inhibition of Apyrase” value of the first is higher: 75% for the first, 69% for the second.

Compared with O=C(Nc1ccc(OC(F)F)c(Cl)c1)c1cccc(S(=O)(=O)Nc2ccc3c(c2)OCO3)c1 [I-181, 3-(N-(benzo[d][1,3]dioxol-5-yl)sulfamoyl)-N-(3-chloro-4-(difluoromethoxy)phenyl)benzamide], O=C(Nc1cccc(Cl)c1)c1cccc(S(=O)(=O)Nc2ccc3c(c2)OCO3)c1 [I-197, 3-(N-(benzo[d][1,3]dioxol-5-yl)sulfamoyl)-N-(3-chlorophenyl)benzamide] is lower in “% Inhibition of Apyrase” value: 77% for the first, 70% for the second.

Going from Cc1cc(C(=O)Nc2cccc(S(=O)(=O)Nc3ccc(Br)cc3)c2)ccc1[N+](=O)[O-] [I-182, N-(3-(N-(4-bromophenyl)sulfamoyl)phenyl)-3-methyl-4-nitrobenzamide] to O=C(Nc1cccc(S(=O)(=O)Nc2ccc(Br)cc2)c1)c1ccc2ncsc2c1 [I-199, N-(3-(N-(4-bromophenyl)sulfamoyl)phenyl)benzo[d]thiazole-6-carboxamide], the “% Inhibition of Apyrase” value falls from 68% to 66%.

Going from Cc1cc(F)ccc1NC(=O)c1ccc(S(=O)(=O)Nc2cccc(C(F)(F)F)c2)cc1 [I-183, N-(4-fluoro-2-methylphenyl)-4-(N-(3-(trifluoromethyl)phenyl)sulfamoyl)benzamide] to O=C(Nc1ccc(F)cc1)c1ccc(S(=O)(=O)Nc2cccc(C(F)(F)F)c2)cc1 [I-193, N-(4-fluorophenyl)-4-(N-(3-(trifluoromethyl)phenyl)sulfamoyl)benzamide], the “% Inhibition of Apyrase” value rises from 67% to 74%.

Compared with Cc1ccc(C(=O)Nc2cccc(NS(=O)(=O)c3ccccc3)c2)cc1C [I-184, 3,4-dimethyl-N-(3-(phenylsulfonamido)phenyl)benzamide], N#Cc1cc(C(=O)Nc2cccc(NS(=O)(=O)c3ccccc3)c2)ccc1Cl [I-210, 4-chloro-3-cyano-N-(3-(phenylsulfonamido)phenyl)benzamide] is lower in “% Inhibition of Apyrase” value: 81% for the first, 73% for the second.

First: N#Cc1cccc(NC(=O)c2ccc(S(=O)(=O)Nc3ccc(Cl)cc3)cc2)c1 [I-185, 4-(N-(4-chlorophenyl)sulfamoyl)-N-(3-cyanophenyl)benzamide]
Second: CCOc1ccc(NS(=O)(=O)c2ccc(C(=O)Nc3cccc(C#N)c3)cc2)cc1 [I-211, N-(3-cyanophenyl)-4-(N-(4-ethoxyphenyl)sulfamoyl)benzamide]
The “% Inhibition of Apyrase” value of the first is higher: 77% for the first, 76% for the second.

Going from N#Cc1ccc(NC(=O)c2cccc(S(=O)(=O)Nc3ccc4c(c3)OCO4)c2)cc1 [I-187, 3-(N-(benzo[d][1,3]dioxol-5-yl)sulfamoyl)-N-(4-cyanophenyl)benzamide] to O=C(Nc1ccc(F)cc1)c1cccc(S(=O)(=O)Nc2ccc3c(c2)OCO3)c1 [I-216, 3-(N-(benzo[d][1,3]dioxol-5-yl)sulfamoyl)-N-(4-fluorophenyl)benzamide], the “% Inhibition of Apyrase” value rises from 67% to 71%.

Compared with O=C(c1cccc(S(=O)(=O)Nc2ccc3c(c2)OCO3)c1)N1CCc2ccccc21 [I-188, N-(benzo[d][1,3]dioxol-5-yl)-3-(indoline-1-carbonyl)benzenesulfonamide], O=C(Nc1ccc(C(F)(F)F)cc1)c1cccc(S(=O)(=O)Nc2ccc3c(c2)OCO3)c1 [I-192, 3-(N-(benzo[d][1,3]dioxol-5-yl)sulfamoyl)-N-(4-(trifluoromethyl)phenyl)benzamide] is lower in “% Inhibition of Apyrase” value: 73% for the first, 72% for the second.

Going from O=C(Nc1ccc(Br)cc1)c1cccc(S(=O)(=O)N2CCc3ccccc32)c1 [I-189, N-(4-bromophenyl)-3-(indolin-1-ylsulfonyl)benzamide] to Cc1cccc(NC(=O)c2cccc(S(=O)(=O)N3CCc4ccccc43)c2)c1 [I-214, 3-(indolin-1-ylsulfonyl)-N-(m-tolyl)benzamide], the “% Inhibition of Apyrase” value rises from 70% to 71%.

Going from O=C(CNC(=O)c1ccc(Br)cc1)Nc1cccc(S(=O)(=O)Nc2ccc(Br)cc2)c1 [I-195, 4-bromo-N-(2-((3-(N-(4-bromophenyl)sulfamoyl)phenyl)amino)-2-oxoethyl)benzamide] to O=C(CNC(=O)c1ccccc1F)Nc1cccc(S(=O)(=O)Nc2ccc(Br)cc2)c1 [I-205, N-(2-((3-(N-(4-bromophenyl)sulfamoyl)phenyl)amino)-2-oxoethyl)-2-fluorobenzamide], the “% Inhibition of Apyrase” value rises from 70% to 74%.

N#Cc1cccc(S(=O)(=O)Nc2cccc(C(=O)Nc3cccc(C(F)(F)F)c3)c2)c1 [I-196, 3-((3-cyanophenyl)sulfonamido)-N-(3-(trifluoromethyl)phenyl)benzamide] and Cc1cccc(NS(=O)(=O)c2ccc(C(=O)Nc3cccc(C#N)c3)cc2)c1C [I-206, N-(3-cyanophenyl)-4-(N-(2,3-dimethylphenyl)sulfamoyl)benzamide] are the same in “% Inhibition of Apyrase” value: 74% for the first, 74% for the second.

Compared with O=C(Nc1ccc(OC(F)(F)F)cc1)c1cccc(S(=O)(=O)Nc2ccc3c(c2)OCO3)c1 [I-200, 3-(N-(benzo[d][1,3]dioxol-5-yl)sulfamoyl)-N-(4-(trifluoromethoxy)phenyl)benzamide], O=C(Nc1cccc(S(=O)(=O)Nc2ccc(Br)cc2)c1)c1ccsc1 [I-207, N-(3-(N-(4-bromophenyl)sulfamoyl)phenyl)thiophene-3-carboxamide] is lower in “% Inhibition of Apyrase” value: 78% for the first, 74% for the second.

First: O=C(Nc1ccc(F)c([N+](=O)[O-])c1)c1ccc(S(=O)(=O)Nc2ccc(Cl)cc2)cc1 [I-203, 4-(N-(4-chlorophenyl)sulfamoyl)-N-(4-fluoro-3-nitrophenyl)benzamide]
Second: O=C(Nc1cccc(NS(=O)(=O)c2ccc(Cl)cc2)c1)c1cc(F)ccc1F [I-212, N-(3-((4-chlorophenyl)sulfonamido)phenyl)-2,5-difluorobenzamide]
The “% Inhibition of Apyrase” value of the first is higher: 72% for the first, 69% for the second.

Compared with O=C(c1ccc(S(=O)(=O)Nc2ccc(Cl)cc2)cc1)N1CCc2ccccc21 [I-208, N-(4-chlorophenyl)-4-(indoline-1-carbonyl)benzenesulfonamide], CN(c1ccccc1)S(=O)(=O)c1ccccc1C(=O)Nc1ccc(S(=O)(=O)N2CCCC2)cc1 [I-215, 2-(N-methyl-N-phenylsulfamoyl)-N-(4-(pyrrolidin-1-ylsulfonyl)phenyl)benzamide] is lower in “% Inhibition of Apyrase” value: 66% for the first, 58% for the second.

From patent publication US12685312B2, “Sulfonamide apyrase inhibitors” (Texas Crop Science, Inc., priority 2022, dated 2026)
